According to ChEMBL document CHEMBL1201862, “PubChem BioAssay data set” (2004):
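96-well plates; 48 h exposure; 5 concentrations. Endpoints by linear interpolation between flanking doses. Not reached: highest tested concentration assigned. GI50: concentration for 50% inhibition of growth.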 Active and inactive are the calls of the source. Rule as the data show it: active = GI50 up to about 1.1 µM and inactive = higher.

Key:
Assay in all cases: NCI tumour cell line growth inhibition, 48 h
[1] = tested on: HOP-62
[2] = tested on: MDA-MB-231
[3] = tested on: KM12
[4] = tested on: DU-145
[5] = tested on: HOP-92
[6] = tested on: MDA-MB-435
[7] = tested on: TK-10
[8] = tested on: SF-268
[9] = tested on: MCF7
[10] = tested on: BT-549
[11] = tested on: OVCAR-5
[12] = tested on: SF-539
[13] = tested on: NCI-H522
[14] = tested on: COLO 205
[15] = tested on: SK-MEL-5
[16] = tested on: SW-620
[17] = tested on: SN12C
[18] = tested on: UACC-62
[19] = tested on: HL-60

| Structure (SMILES) | GI50 [1] | GI50 [2] | GI50 [3] | GI50 [4] | GI50 [5] | GI50 [6] | GI50 [7] | GI50 [8] | GI50 [9] | GI50 [10] | GI50 [11] | GI50 [12] | GI50 [13] | GI50 [14] | GI50 [15] | GI50 [16] | GI50 [17] | GI50 [18] | GI50 [19] |
| --- | --- | --- | --- | --- | --- | --- | --- | --- | --- | --- | --- | --- | --- | --- | --- | --- | --- | --- | --- |
| COC(=O)C1=C(C(=O)OC)SC(=C2S[C@@H]3[C@@H]4C[C@H]([C@@H]3S2)[C@H]2C(=O)OC(=O)[C@@H]42)S1 | > 100 µM (inactive) | > 100 µM (inactive) | > 100 µM (inactive) | > 100 µM (inactive) | > 100 µM (inactive) | > 100 µM (inactive) | > 100 µM (inactive) | > 100 µM (inactive) | > 100 µM (inactive) | > 100 µM (inactive) | > 100 µM (inactive) | > 100 µM (inactive) | > 100 µM (inactive) | > 100 µM (inactive) | > 100 µM (inactive) | > 100 µM (inactive) | > 100 µM (inactive) | > 100 µM (inactive) | > 100 µM (inactive) |
| CC(C)(C)c1cc(/C=C2/NC(=O)NC2=O)cc(C(C)(C)C)c1O | 17.1 µM (inactive) | 12.6 µM (inactive) | 13.2 µM (inactive) | 15.6 µM (inactive) | 14.2 µM (inactive) | 17.3 µM (inactive) | 16.4 µM (inactive) | 14.3 µM (inactive) | 13 µM (inactive) | 13.7 µM (inactive) | 15.9 µM (inactive) | 17 µM (inactive) | 12 µM (inactive) | 14.4 µM (inactive) | 13.7 µM (inactive) | 18.3 µM (inactive) | 15.2 µM (inactive) | 16.5 µM (inactive) | 10.8 µM (inactive) |
| COc1ccc(/N=N/C(=O)NC(CC(C)C)C(N)=O)cc1 (stereo not drawn) | > 100 µM (inactive) | > 31.6 µM (inactive) | 5.27 µM (inactive) | 49.1 µM (inactive) | > 31.6 µM (inactive) | 28.2 µM (inactive) | > 31.6 µM (inactive) | > 100 µM (inactive) | 24.3 µM (inactive) | 47.1 µM (inactive) | > 100 µM (inactive) | 22.9 µM (inactive) | > 100 µM (inactive) | 15.3 µM (inactive) | > 62.4 µM (inactive) | > 29.2 µM (inactive) | > 31.6 µM (inactive) | 6.92 µM (inactive) | > 100 µM (inactive) |
| Cc1ccc(C)c2c1NC(=O)/C2=N\Nc1ccccc1[N+](=O)[O-] | 55.8 µM (inactive) | > 100 µM (inactive) | > 100 µM (inactive) | > 100 µM (inactive) | 40.7 µM (inactive) | > 100 µM (inactive) | > 100 µM (inactive) | > 100 µM (inactive) | > 100 µM (inactive) | > 100 µM (inactive) | > 100 µM (inactive) | 98.2 µM (inactive) | > 100 µM (inactive) | > 100 µM (inactive) | > 100 µM (inactive) | > 100 µM (inactive) | > 100 µM (inactive) | > 100 µM (inactive) | > 100 µM (inactive) |
| Cc1ccc(S(=O)(=O)N(CC(O)c2ccccc2)c2ccccc2F)cc1 (stereo not drawn) | 16.8 µM (inactive) | 18.2 µM (inactive) | 16.8 µM (inactive) | 16.1 µM (inactive) | 10.2 µM (inactive) | 16.2 µM (inactive) | 19.7 µM (inactive) | 15.9 µM (inactive) | 13 µM (inactive) | 16.6 µM (inactive) | 19.2 µM (inactive) | 16.6 µM (inactive) | 17.3 µM (inactive) | 15.4 µM (inactive) | 15.9 µM (inactive) | 19.6 µM (inactive) | 17.8 µM (inactive) | 12.2 µM (inactive) | 1.13 µM (inactive) |
| Cc1ccc2ccc(=O)oc2c1 | > 100 µM (inactive) | > 100 µM (inactive) | > 100 µM (inactive) | > 100 µM (inactive) | > 100 µM (inactive) | > 100 µM (inactive) | > 100 µM (inactive) | > 100 µM (inactive) | > 100 µM (inactive) | > 100 µM (inactive) | > 100 µM (inactive) | > 100 µM (inactive) | > 100 µM (inactive) | > 100 µM (inactive) | > 100 µM (inactive) | > 100 µM (inactive) | > 100 µM (inactive) | 74.5 µM (inactive) | > 100 µM (inactive) |
| CC12ON(P(=O)(c3ccccc3)c3ccccc3)C(C)(c3ccccc31)c1ccccc12 | > 100 µM (inactive) | > 100 µM (inactive) | > 100 µM (inactive) | > 100 µM (inactive) | > 100 µM (inactive) | > 100 µM (inactive) | > 100 µM (inactive) | > 100 µM (inactive) | 0.675 µM (active) | > 100 µM (inactive) | > 100 µM (inactive) | > 100 µM (inactive) | > 100 µM (inactive) | > 100 µM (inactive) | > 100 µM (inactive) | > 100 µM (inactive) | > 100 µM (inactive) | > 100 µM (inactive) | 55.6 µM (inactive) |
